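Protocol summary: plate cells (96-well), add compound at 5 concentrations, incubate 48 h, interpolate endpoints linearly. GI50 = concentration required for 50% inhibition of growth. At the TGI there is no net growth.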
Assays:
Experiment in all cases: NCI-60 cell line screen, 48 h
SF-539 CNS = test system: SF-539 CNS
PC-3 prostate = test system: PC-3 prostate
HL-60(TB) leukemia = test system: HL-60(TB) leukemia
CCRF-CEM leukemia = test system: CCRF-CEM leukemia
M14 melanoma = test system: M14 melanoma
KM12 colon = test system: KM12 colon
RPMI-8226 leukemia = test system: RPMI-8226 leukemia
SK-MEL-2 melanoma = test system: SK-MEL-2 melanoma
K-562 leukemia = test system: K-562 leukemia
MDA-MB-231 breast = test system: MDA-MB-231 breast

SMILES	TGI (SF-539 CNS)	TGI (PC-3 prostate)	TGI (HL-60(TB) leukemia)	TGI (CCRF-CEM leukemia)	TGI (M14 melanoma)	TGI (KM12 colon)	TGI (RPMI-8226 leukemia)	TGI (SK-MEL-2 melanoma)	TGI (K-562 leukemia)	TGI (MDA-MB-231 breast)	GI50 (SF-539 CNS)	GI50 (PC-3 prostate)	GI50 (HL-60(TB) leukemia)	GI50 (CCRF-CEM leukemia)	GI50 (M14 melanoma)	GI50 (KM12 colon)	GI50 (RPMI-8226 leukemia)	GI50 (SK-MEL-2 melanoma)	GI50 (K-562 leukemia)	GI50 (MDA-MB-231 breast)
CCOC(=O)c1c(-c2cccc(Cl)c2)c(C(=O)OC)c(C)c2sc(C=O)nc12	35.4 µM	37.5 µM	44.9 µM	37 µM	31.4 µM	37.8 µM	46.4 µM	37.1 µM	89.8 µM	34.6 µM	–	–	–	–	–	–	–	–	–	–
Cc1ccc(OCC2=NC3S/C(=C/c4ccc([N+](=O)[O-])o4)C(=O)N3N2)cc1 (centres undefined)	4.3 µM	18.2 µM	5.34 µM	35.3 µM	23.6 µM	32 µM	6.16 µM	31.7 µM	3.98 µM	26.6 µM	–	–	–	–	–	–	–	–	–	–
COC(=O)C1=C(OC(=O)/C=C/c2ccc(Cl)cc2)C(C(=O)OC)[C@]2(O)[C@@H](C(=O)OC)[C@H]1C[C@@H](c1ccccc1)[C@@H]2C(=O)OC (some centres undefined)	35.6 µM	> 47.6 µM	23.7 µM	> 100 µM	49.8 µM	> 100 µM	> 100 µM	> 27.9 µM	> 100 µM	> 65.9 µM	–	–	–	–	–	–	–	–	–	–
O/C(=C\c1nc2ccccc2nc1/C=C(\O)c1ccc(F)cc1)c1ccc(F)cc1	> 100 µM	> 100 µM	> 100 µM	> 100 µM	> 100 µM	> 100 µM	> 100 µM	> 100 µM	> 100 µM	> 100 µM	–	–	–	–	–	–	–	–	–	–
N#Cc1ccccc1C#C/C=C\C#Cc1ccccc1N	> 20.2 µM	> 75.9 µM	> 100 µM	> 100 µM	11.3 µM	> 51.3 µM	> 93 µM	8.2 µM	> 100 µM	8.37 µM	4.49 µM	5.99 µM	4220 nM	1600 nM	243 nM	2550 nM	2280 nM	1170 nM	4.12 µM	2130 nM
CC(=O)Nc1ccc(C(=O)NN2C(=O)C(Cl)C2c2cccc([N+](=O)[O-])c2)cc1 (centres undefined)	> 100 µM	–	> 100 µM	> 100 µM	–	> 100 µM	> 100 µM	> 100 µM	> 100 µM	–	–	–	–	–	–	–	–	–	–	–
CCN1CCN(c2nc3ccccc3nc2C(=O)c2ccc(OC)c(OC)c2)CC1	3.14 µM	> 100 µM	> 100 µM	46 µM	31.3 µM	53.2 µM	35.8 µM	> 100 µM	34.1 µM	32 µM	–	–	–	–	–	–	–	–	–	–
Cc1cc2ccc(OC(=O)c3ccc(N=C(N)N)cc3)cc2oc1=O	61.6 µM	78.5 µM	45.8 µM	> 100 µM	97.7 µM	61.1 µM	55.1 µM	60.9 µM	74.9 µM	49.2 µM	–	–	–	–	–	–	–	–	–	–
CS(C)(=O)=Nn1c(=O)n2n(c1=O)C1c3ccccc3C2c2ccccc21	> 100 µM	> 100 µM	> 100 µM	> 100 µM	> 100 µM	–	> 100 µM	> 100 µM	> 100 µM	> 100 µM	–	–	–	–	–	–	–	–	–	–
Cn1c2[n+](c3nc(N)[nH]c(=O)c31)C1OC(C2)C(O)C1O (centres undefined)	> 100 µM	–	> 100 µM	> 100 µM	> 100 µM	> 100 µM	–	> 100 µM	> 100 µM	–	–	–	–	–	–	–	–	–	–	–
COc1cccc(/C=N/[N-]C(N)=O)c1[O-].[Ni+2].[OH3+]	2.28 µM	–	0.86 µM	1.48 µM	2.08 µM	0.91 µM	4.13 µM	1.46 µM	2.31 µM	–	–	–	111 nM	–	–	–	–	–	–	–
CC1=CC(O)C(C(O)(C(F)(F)F)C(F)(F)F)C(C)(C)C1 (centres undefined)	> 10 µM	> 10 µM	> 10 µM	> 10 µM	–	> 10 µM	> 10 µM	> 10 µM	> 10 µM	> 10 µM	–	–	–	–	–	–	–	–	–	–
Nc1nnc(CCC(=O)Nc2cc(Cl)ccc2Cl)n1N	> 100 µM	–	> 100 µM	> 100 µM	> 100 µM	> 100 µM	> 100 µM	> 100 µM	> 100 µM	–	–	–	–	–	–	–	–	–	–	–
O=S(=O)(O)c1ccc2c(N=Nc3ccc(N=Nc4ccccc4)cc3)c(O)c(S(=O)(=O)O)cc2c1	> 100 µM	> 100 µM	> 100 µM	> 100 µM	> 100 µM	> 100 µM	> 100 µM	> 100 µM	> 100 µM	> 100 µM	–	–	–	–	–	–	–	–	–	–
Cc1cc(C)c2c(=O)n(CC(O)CN3CCN(CCOCCO)CC3)sc2n1 (centres undefined)	38.4 µM	40.7 µM	54.4 µM	> 100 µM	33.5 µM	48 µM	–	39.9 µM	> 100 µM	37.6 µM	–	–	–	–	–	–	–	–	–	–
OCCCSCCO	> 100 µM	> 100 µM	> 100 µM	> 100 µM	> 100 µM	> 100 µM	> 100 µM	> 100 µM	> 100 µM	> 100 µM	–	–	–	–	–	–	–	–	–	–
Cc1n[n+]([O-])c(C)cc1[N+](=O)[O-]	59.3 µM	65.2 µM	–	9.32 µM	30.7 µM	–	6.31 µM	42.3 µM	–	39.8 µM	–	–	–	–	–	–	–	–	–	–
CC1(C(=O)O)C[C@](C)(C(=O)OCc2ccccc2)C[C@](C)(C(=O)OCc2ccccc2)C1 (some centres undefined)	64.5 µM	> 100 µM	53.9 µM	> 100 µM	> 100 µM	99.5 µM	72.6 µM	39.3 µM	> 100 µM	–	–	–	–	–	–	–	–	–	–	–

Reference: PubChem BioAssay (NCI)
